Converted amounts (≈) assume the structure as drawn.
conditions: buffer; pH 7.4; 200.0 µM

Row | Structure (SMILES) | solubility kinetic [mg/mL]
1 | Cn1c(O)c(/C=C2/C=CC=N2)c(=O)[nH]c1=O | > 0.0329
2 | Cc1cc2c(Nc3cccc(O)c3)ncnc2s1.Cl | 0.0417
3 | Cc1ccc(OCC(=O)NCCCNC(=O)c2ccco2)cc1C | > 0.0496
4 | O=C(NCCN1CCCCC1)Nc1cccc(C(F)(F)F)c1 | > 0.0473
5 | CC(=O)c1sc(NC(C)c2ccccc2)nc1C (stereo unspecified) | 0.0304 (≈ 117 µM)
6 | COc1cc(NC(=S)N2CCCCC2C)c(OC)cc1Cl (stereo unspecified) | 0.0447 (≈ 136 µM)
7 | CC(C)Oc1cc(C(=O)NC2CCCCC2)c2ccccc2n1 | 0.0014 (≈ 4.48 µM)
8 | COc1ccc(NC(=O)CCOc2ccc(C)cc2)c(OC)c1 | 0.0296 (≈ 93.9 µM)
9 | CC1CC1C(=O)N(C)CC(=O)Nc1ccccc1Br (stereo unspecified) | > 0.0488
10 | Cl.Clc1cccc(OCCN2CCCC2)c1 | 0.0372
11 | O=c1[nH]cccc1-c1nc2ccccc2n1Cc1cccc(Cl)c1 | 0.0014 (≈ 4.17 µM)
12 | FC(F)(F)c1ccccc1CN1CCC(Cc2ccccc2)CC1 | < 0.0007
13 | COCN(C#N)c1nc(N(C)C)nc(N(C)C)n1 | > 0.0377
14 | O=C(Nc1ccc(N2CCOCC2)cc1)c1cccc(S(=O)(=O)N2CCOCC2)c1 | 0.0151 (≈ 35 µM)
15 | O=C(COC(=O)C1COc2ccccc2O1)Nc1ccccc1OC(F)F (stereo unspecified) | > 0.0569
16 | O=C(COc1ccccc1)N1CCN=C1SCc1ccccc1 | 0.0143 (≈ 43.8 µM)
17 | COCCNC(=O)c1ccc2c(Cl)c3c(nc2c1)CCC3 | > 0.0457
18 | CC(C)=Cc1oc2ccc([N+](=O)[O-])cc2c1N1CCOCC1 | < 0.0003
19 | CNC(=O)c1ccccc1S(=O)c1ccccc1COC(C)=O (stereo unspecified) | > 0.0497
20 | CC(C)CC1C2C(=O)N(c3ccccc3)C(=O)C2ON1c1ccccc1 (stereo unspecified) | 0.0277 (≈ 79 µM)
21 | CC1c2ccsc2CCN1S(=O)(=O)c1cccs1 (stereo unspecified) | 0.0235 (≈ 78.5 µM)
22 | Cc1ccc(N2CC(C(=O)NC3CC3)CC2=O)cc1 (stereo unspecified) | > 0.0387

Row | Structure (SMILES) | solubility kinetic [mg/mL]
23 | COCc1c(C(=O)Nc2cccc(S(=O)(=O)N3CCCCC3)c2)oc2ccccc12 | 0.0031 (≈ 7.23 µM)
24 | CCN(CC)c1ccc(NC(=O)CSC(=O)c2ccccc2)cc1.O=S(=O)(O)O | 0.0041
25 | O=C(Nc1cccc(C(F)(F)F)c1)Nc1ccon1 | 0.0099 (≈ 36.5 µM)
26 | O=C1CCC/C1=C/Nc1cccc(F)c1 | 0.0236 (≈ 115 µM)
27 | O=C(Nc1ccc2ccccc2n1)c1ccccc1Cl | 0.0011 (≈ 3.89 µM)
28 | Clc1ccc(C(CCN2CCCC2)Cc2ccccc2)cc1 (stereo unspecified) | 0.0298 (≈ 94.9 µM)
29 | Cc1ccc(NC(=O)/C(Cl)=C\c2ccccc2)cc1 | 0.0014 (≈ 5.15 µM)
30 | O=C(OCC(=O)N1CCCC1)c1cc(F)c(F)cc1Cl | 0.0453 (≈ 149 µM)
31 | Cc1cc(C)nc(N2CCC(C(=O)NC3CC3)CC2)n1 | 0.0364 (≈ 133 µM)
32 | COc1ccc(C(=O)CCC(=O)Nc2cccnc2)cc1 | > 0.0426
33 | O=C(NCc1ccccc1)c1ccc(NC(=O)c2ccco2)cc1 | 0.002 (≈ 6.24 µM)
34 | O=Cc1ccc(C(=O)OCC(=O)N2CCCC2)cc1 | 0.0363 (≈ 139 µM)
35 | CCOC(=O)C1CCN(S(=O)(=O)c2ccc(C)c(C)c2)CC1 | 0.0045 (≈ 13.8 µM)
36 | Cc1cc(C)nc(NC(=S)Nc2ccccc2)n1 | 0.0003 (≈ 1.16 µM)
37 | Cc1ccccc1-c1nc(CN2CCSCC2)c(C)o1 | 0.0261 (≈ 90.5 µM)
38 | Nc1nc(SC23CC4CC(CC(C4)C2)C3)ns1 | < 0.0002
39 | COc1ccccc1NS(=O)(=O)c1ccc(N2CCOCC2)c(N)c1 | 0.0051 (≈ 14 µM)
40 | O=C(Nc1cc(Cl)ccc1N1CCOCC1)c1ccco1 | 0.0035 (≈ 11.4 µM)
41 | Cc1ccccc1NC(=O)c1ccccn1 | 0.0289 (≈ 136 µM)
42 | O=C(Nc1ccc(Cl)cc1)N1CCOC12CCCCC2 | > 0.0442
43 | COc1ccc([N+](=O)[O-])c(OC)c1C(=O)Nc1ccc(F)cc1F | 0.0339 (≈ 100 µM)
44 | CC(=O)Nc1cccc2c1C(=O)N(c1cccc(OC(C)=O)c1)C2=O | > 0.0507

Row | Structure (SMILES) | solubility kinetic [mg/mL]
45 | N/C(=N\c1nc2ccccc2o1)NC(=O)/C=C/c1ccccc1 | < 0.0002
46 | Cc1ccc(C(=O)COC(=O)c2cnccn2)cc1C | 0.0387 (≈ 143 µM)
47 | N#CCSc1nc2ccccc2c(=O)n1CC1CCCC1 | 0.0008 (≈ 2.67 µM)
48 | O=C1Cc2ccccc2C(=O)N1c1cccc(Cl)c1 | > 0.0408
49 | COc1ccc(-c2noc(CCC(=O)NC3CCCC3)n2)cc1 | 0.0272 (≈ 86.2 µM)
50 | Cl.Clc1ccc(CN2CCNCC2)cc1 | 0.0226
51 | Cc1nnc(N(C)C(=O)c2ccc3c(c2)OCO3)s1 | > 0.0416
52 | Cc1ccc(N2C(=O)C3CCCN3C2=S)cc1 (stereo unspecified) | 0.0342 (≈ 139 µM)
53 | O=C(O)c1ccc(S(=O)(=O)Nc2ccc3c(c2)OCCO3)cc1 | 0.0415 (≈ 124 µM)
54 | O=C1/C(=C/c2ccccn2)SC(=S)N1c1ccc(O)cc1 | 0.0005 (≈ 1.59 µM)
55 | CCCN(CCC)C(=O)c1cc2c(=O)n3cccc(C)c3nc2s1 | 0.0347 (≈ 101 µM)
56 | Cc1cc(C)c2c(N)c(C(=O)c3ccccc3Cl)sc2n1 | 0.0004 (≈ 1.26 µM)
57 | CC(C)Oc1ccc(CCN=C(N)N=C(N)N)cc1Cl.Cl | > 0.0501
58 | CC(=O)NCCNS(=O)(=O)c1ccc(C)c([N+](=O)[O-])c1 | > 0.0452
59 | COc1ccccc1N1CCN(/N=C/c2ccccc2C(=O)O)CC1 | > 0.0509
60 | O=C(Nc1ncccn1)C12CC3CC(CC(C3)C1)C2 | > 0.0386
61 | CC(=O)NCc1ccc(C(=O)COC(=O)COc2ccc(Cl)c(C)c2)s1 | 0.0386 (≈ 97.5 µM)
62 | NS(=O)(=O)c1cc2c(cc1Cl)NC=NS2(=O)=O | > 0.0444
63 | COc1ccc(NC(=O)c2ccc(NC(=O)COC(=O)c3cnc(C)cn3)cc2)cc1 | 0.0091 (≈ 21.6 µM)
64 | On1c(-c2ccccc2)nc2ncccc21 | > 0.0317
65 | NS(=O)(=O)c1ccc(NC(=O)CSc2nc3ccccc3c(=O)n2Cc2ccncc2)cc1 | 0.008 (≈ 16.6 µM)
66 | CCOc1ccc(C2NC(=O)CCC2[N+](=O)[O-])cc1 (stereo unspecified) | > 0.0396

Row | Structure (SMILES) | solubility kinetic [mg/mL]
67 | CC(Oc1ccc(Br)cc1Br)C(=O)Nc1cccnc1 (stereo unspecified) | 0.0072 (≈ 18 µM)
68 | COC(=O)C1Cc2ccccc2CN1S(=O)(=O)c1ccc(C)cc1 (stereo unspecified) | 0.0196 (≈ 56.7 µM)
69 | O=C1/C(=C/c2cccnc2)CC/C1=C\c1cccnc1 | 0.0171 (≈ 65.2 µM)
70 | O=C(Nc1cccc2ccccc12)NC1CCCCC1 | < 0.0003
71 | CNS(=O)(=O)c1cccc(C(=O)NCC(C)(C)N2CCCCC2)c1 | 0.0488 (≈ 138 µM)
72 | COc1ccccc1NC(=O)c1c(C)nc2ccccc2c1C(=O)O | > 0.0505
73 | CCn1c(SCCN2CCOCC2)nc2c1c(=O)n(C)c(=O)n2C | > 0.053
74 | CC1(CCc2ccccc2)NC(=O)N(CC(=O)O)C1=O (stereo unspecified) | 0.0166 (≈ 60.1 µM)
75 | CCN(CC)C(=O)CN1C(=O)/C(=C/c2ccccc2)SC1=S | 0.0025 (≈ 7.47 µM)
76 | COC(=O)c1cc(OC)c(OC)cc1NC(=S)N1CCCC1 | 0.0063 (≈ 19.4 µM)
77 | Nc1cccc2c1C(=O)N(CCOc1ccc(F)cc1)C2=O | 0.0084 (≈ 28 µM)
78 | N/C(=N\S(=O)(=O)c1ccc(Cl)cc1)N1CCOCC1 | > 0.0456
79 | CC(C)(/C=N/O)/[N+]([O-])=C/c1ccccc1 | > 0.0309
80 | O=C(COC(=O)Cc1c(F)cccc1Cl)Nc1ccc2[nH]c(=O)[nH]c2c1 | > 0.0567
81 | Cc1ccc(NC(=O)Cn2c(=O)oc3ccccc32)c(C)c1 | 0.0139 (≈ 46.9 µM)
82 | O=C(Nc1ccc(COc2ccccc2)cc1)Nc1cccc(C(=O)O)c1 | 0.0121 (≈ 33.4 µM)
83 | CN(c1ccccc1)S(=O)(=O)c1cc(C(=O)N2CCN(c3ncccn3)CC2)ccc1Cl | 0.0335 (≈ 71 µM)
84 | Cl.OC(CNC1CCCC1)COc1ccc(Cl)cc1 (stereo unspecified) | > 0.0459
85 | CCNC(=O)CC1C(=O)N(c2ccc(C)cc2)C(=O)N1CCC(C)C (stereo unspecified) | > 0.0518
86 | O=C(OCc1ccc([N+](=O)[O-])cc1Cl)c1cnccn1 | > 0.0441

— PubChem BioAssay AID1996
